Laboratory results: PubChem BioAssay (NCI)
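In this assay, cells in 96-well plates receive the compound at five concentrations for 48 hours. Endpoints are linearly interpolated between the surrounding concentrations. TGI is the concentration that stops growth completely.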

Tests used:
Experiment in all cases: NCI anticancer screen, dose series, 48 h
[1] = tested on: 786-0 renal
[2] = tested on: A549 NSCLC
[3] = tested on: ACHN renal
[4] = tested on: BT-549 breast
[5] = tested on: CAKI-1 renal
[6] = tested on: CCRF-CEM leukemia
[7] = tested on: COLO 205 colon
[8] = tested on: DU-145 prostate
[9] = tested on: EKVX NSCLC
[10] = tested on: HCT-116 colon
[11] = tested on: HCT-15 colon
[12] = tested on: HL-60(TB) leukemia
[13] = tested on: HOP-62 NSCLC
[14] = tested on: HOP-92 NSCLC
[15] = tested on: HS 578T breast
[16] = tested on: HT29 colon
[17] = tested on: IGROV1 ovarian
[18] = tested on: K-562 leukemia
[19] = tested on: KM12 colon
[20] = tested on: LOX IMVI melanoma
[21] = tested on: M14 melanoma
[22] = tested on: MALME-3M melanoma
[23] = tested on: MCF7 breast
[24] = tested on: MDA-MB-231 breast
[25] = tested on: MDA-MB-435
[26] = tested on: MDA-N
[27] = tested on: MOLT-4 leukemia
[28] = tested on: NCI-H226 lung
[29] = tested on: NCI-H23 lung
[30] = tested on: NCI-H460 lung
[31] = tested on: NCI-H522 lung
[32] = tested on: NCI/ADR-RES ovarian
[33] = tested on: OVCAR-3 ovarian
[34] = tested on: OVCAR-4 ovarian
[35] = tested on: OVCAR-5 ovarian
[36] = tested on: OVCAR-8 ovarian
[37] = tested on: PC-3 prostate
[38] = tested on: RPMI-8226 leukemia
[39] = tested on: SF-268 CNS
[40] = tested on: SF-295 CNS
[41] = tested on: SF-539 CNS
[42] = tested on: SK-MEL-2 melanoma
[43] = tested on: SK-MEL-28 melanoma
[44] = tested on: SK-OV-3 ovarian
[45] = tested on: SN12C renal
[46] = tested on: SNB-19 CNS
[47] = tested on: SNB-75 CNS
[48] = tested on: SR leukemia
[49] = tested on: SW-620 colon
[50] = tested on: TK-10 renal
[51] = tested on: U251 CNS
[52] = tested on: UACC-257 melanoma
[53] = tested on: UACC-62 melanoma
[54] = tested on: UO-31 renal

In the case of `O=C1/C(=C/c2cccc(Br)c2)Cc2ccccc21`, the TGI [1] is reported as over 100 µM, the TGI [2] is reported as over 100 µM and the TGI [3] is reported as over 100 µM. For the same compound, the TGI [4] was over 100 µM, the TGI [5] was over 100 µM and the TGI [6] was over 100 µM. For the same compound, the TGI [7] was 89.7 µM, the TGI [8] was over 100 µM and the TGI [9] was over 100 µM. The TGI [10] was over 100 µM, the TGI [11] was over 100 µM and the TGI [12] was over 100 µM. It also gave a TGI [13] of over 100 µM, a TGI [14] of over 100 µM and a TGI [15] of over 100 µM. It also gave a TGI [16] of over 100 µM, a TGI [17] of over 100 µM and a TGI [18] of over 100 µM. It also gave a TGI [19] of over 100 µM, a TGI [20] of over 100 µM and a TGI [21] of over 100 µM. For the same compound, the TGI [22] was over 100 µM, the TGI [23] was over 100 µM and the TGI [24] was over 100 µM. The TGI [25] was over 100 µM, the TGI [26] was over 100 µM and the TGI [27] was over 100 µM. For the same compound, the TGI [28] was over 100 µM, the TGI [29] was over 100 µM and the TGI [30] was over 100 µM. The TGI [31] was over 100 µM, the TGI [32] was over 100 µM and the TGI [33] was over 100 µM. It also gave a TGI [34] of over 100 µM, a TGI [35] of over 100 µM and a TGI [36] of over 100 µM. It also gave a TGI [37] of over 100 µM, a TGI [38] of over 100 µM and a TGI [39] of over 100 µM. For the same compound, the TGI [40] was over 100 µM, the TGI [41] was over 100 µM and the TGI [42] was over 100 µM. The TGI [43] was over 100 µM, the TGI [44] was over 100 µM and the TGI [45] was over 100 µM. It also gave a TGI [46] of over 100 µM, a TGI [47] of over 100 µM and a TGI [48] of over 100 µM. For the same compound, the TGI [49] was over 100 µM, the TGI [50] was over 100 µM and the TGI [51] was over 100 µM. For the same compound, the TGI [52] was over 100 µM, the TGI [53] was over 100 µM and the TGI [54] was over 100 µM.
